From article PMC7914897, “Cytotoxic Potential of a-Azepano- and 3-Amino-3,4-SeCo-Triterpenoids” (International Journal of Molecular Sciences, 2021)
Read-outs that look alike come from different tables or passages of the source.

How the values were obtained:
[1] = tested on: NIH 3T3 (non-malignant mouse fibroblasts); experiment: SRB cytotoxicity assay, 72 h; assay type: cell-based; conditions: NIH 3T3, 72 h, cut-off 30 µM
Method in brief: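 Cells seeded, treated 24 h later with serial dilutions (0–30 µM; DMSO ≤0.5%) for 72 h. TCA-fixed, SRB-stained, absorbance read at 570 nm; survival relative to untreated controls gives EC50.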

[2] = tested on: SR (Leukemia); experiment: NCI-60 screen (SRB, 48 h); assay type: cell-based
[3] = tested on: MDA-MB-435 (Melanoma); experiment: NCI-60 screen (SRB, 48 h); assay type: cell-based
[4] = tested on: MDA-MB-468 (Breast cancer); experiment: cells; conditions: Homo sapiens; for GI50: MDA-MB-468; for IC (TGI): MDA-MB-468, 48 h, read-out: TGI; for CC50: MDA-MB-468, read-out: LC50
[5] = tested on: NSC lung cancer subpanel; experiment: NCI-60 screen, subpanel; conditions: Homo sapiens; for IC (TGI): 48 h, read-out: TGI MG_MID; for GI50: read-out: GI50 MG_MID; for CC50: read-out: LC50 MG_MID
[6] = tested on: Ovarian Cancer subpanel; experiment: NCI-60 screen, subpanel; conditions: Homo sapiens; for IC (TGI): 48 h, read-out: TGI MG_MID; for GI50: read-out: GI50 MG_MID; for CC50: read-out: LC50 MG_MID
[7] = tested on: MOLT-4 (Leukemia); experiment: NCI-60 screen (SRB, 48 h); conditions: Homo sapiens; for GI50: MOLT-4; for CC50: MOLT-4, read-out: LC50
[8] = tested on: HOP-62 (NSC lung cancer); experiment: NCI-60 screen (SRB, 48 h); conditions: Homo sapiens; for GI50: HOP-62; for IC (TGI): HOP-62, 48 h, read-out: TGI; for CC50: HOP-62, read-out: LC50
[9] = tested on: HOP-92 (NSC lung cancer); experiment: NCI-60 screen (SRB, 48 h); conditions: Homo sapiens; for GI50: HOP-92; for IC (TGI): HOP-92, 48 h, read-out: TGI; for CC50: HOP-92, read-out: LC50
[10] = tested on: COLO 205 (Colon cancer); experiment: NCI-60 screen (SRB, 48 h); conditions: for GI50 / IC (TGI) / CC50: Homo sapiens; for GI50: COLO 205; for IC (TGI): COLO 205, 48 h, read-out: TGI; for CC50: COLO 205, read-out: LC50
[11] = tested on: HCT-116 (Colon cancer); experiment: NCI-60 screen (SRB, 48 h); conditions: Homo sapiens; for GI50: HCT-116; for activity at 10 µM / IC (TGI): HCT-116, 48 h; for activity at 10 µM: read-out: Growth % of the Most Sensitive Cell Lines; for IC (TGI): read-out: TGI; for CC50: HCT-116, read-out: LC50
[12] = tested on: SF-268 (CNS cancer); experiment: NCI-60 screen (SRB, 48 h); conditions: Homo sapiens; for GI50: SF-268; for IC (TGI): SF-268, 48 h, read-out: TGI; for CC50: SF-268, read-out: LC50
[13] = tested on: SF-539 (CNS cancer); experiment: NCI-60 screen (SRB, 48 h); conditions: Homo sapiens; for GI50: SF-539; for IC (TGI): SF-539, 48 h, read-out: TGI; for CC50: SF-539, read-out: LC50
[14] = tested on: SNB-75 (CNS cancer); experiment: NCI-60 screen (SRB, 48 h); conditions: Homo sapiens; for GI50: SNB-75; for IC (TGI): SNB-75, 48 h, read-out: TGI; for CC50: SNB-75, read-out: LC50
[15] = tested on: M14 (Melanoma); experiment: NCI-60 screen (SRB, 48 h); conditions: for GI50 / IC (TGI) / CC50: Homo sapiens; for GI50: M14; for IC (TGI): M14, 48 h, read-out: TGI; for CC50: M14, read-out: LC50
[16] = tested on: UACC-62 (Melanoma); experiment: NCI-60 screen (SRB, 48 h); conditions: Homo sapiens; for GI50: UACC-62; for IC (TGI): UACC-62, 48 h, read-out: TGI; for CC50: UACC-62, read-out: LC50
[17] = tested on: OVCAR-5 (Ovarian cancer); experiment: NCI-60 screen (SRB, 48 h); conditions: Homo sapiens; for GI50: OVCAR-5; for IC (TGI): OVCAR-5, 48 h, read-out: TGI; for CC50: OVCAR-5, read-out: LC50
[18] = tested on: OVCAR-8 (Ovarian cancer); experiment: NCI-60 screen (SRB, 48 h); conditions: Homo sapiens; for GI50: OVCAR-8; for IC (TGI): OVCAR-8, 48 h, read-out: TGI; for CC50: OVCAR-8, read-out: LC50
[19] = tested on: SK-OV-3 (Ovarian cancer); experiment: NCI-60 screen (SRB, 48 h); conditions: Homo sapiens; for GI50: SK-OV-3; for IC (TGI): SK-OV-3, 48 h, read-out: TGI; for CC50: SK-OV-3, read-out: LC50
[20] = tested on: 786-0 (Renal cancer); experiment: NCI-60 screen (SRB, 48 h); conditions: Homo sapiens; for GI50: 786-0; for IC (TGI): 786-0, 48 h, read-out: TGI; for CC50: 786-0, read-out: LC50
[21] = tested on: CAKI-1 (Renal cancer); experiment: NCI-60 screen (SRB, 48 h); conditions: Homo sapiens; for GI50: CAKI-1; for IC (TGI): CAKI-1, 48 h, read-out: TGI; for CC50: CAKI-1, read-out: LC50
[22] = tested on: RXF 393 (Renal cancer); experiment: NCI-60 screen (SRB, 48 h); conditions: Homo sapiens; for GI50: RXF 393; for IC (TGI): RXF 393, 48 h, read-out: TGI; for CC50: RXF 393, read-out: LC50
[23] = tested on: PC-3 (Prostate cancer); experiment: NCI-60 screen (SRB, 48 h); conditions: Homo sapiens; for GI50: PC-3; for IC (TGI): PC-3, 48 h, read-out: TGI; for CC50: PC-3, read-out: LC50

C=C(C)C1CCC2(CO)CCC3(C)C(CCC4C5(C)CCCNC(C)(C)C5CCC43C)C12 (stereo not drawn) [Compound 1, Azepanobetulin]
EC50 ([1]; Mus musculus, NIH3T3, read-out: EC50): 1600 ± 400 nM
TGI [2]: 3.79 µM
GI50 ([2]; Homo sapiens): 1590 nM
IC (TGI) ([3]; Homo sapiens, MDA-MB-435, 48 h; read-out: TGI): 2.95 µM
GI50 ([3]; Homo sapiens, MDA-MB-435; read-out: GI50): 1560 nM
GI50 [4]: 1660 nM
IC (TGI) [4]: 3.38 µM
CC50 [4]: 6.88 µM
IC (TGI) [5]: 3.35 µM
GI50 [5]: 1710 nM
CC50 [5]: 6.49 µM
IC (TGI) [6]: 3.18 µM
GI50 [6]: 1.65 µM
CC50 [6]: 6.24 µM
GI50 [7]: 1790 nM
IC (TGI) ([7]; MOLT-4, 48 h, read-out: TGI): 4.5 µM
CC50 [7]: > 100 µM
GI50 [8]: 1.81 µM
IC (TGI) [8]: 3.42 µM
CC50 [8]: 6.46 µM
GI50 [9]: 1730 nM
IC (TGI) [9]: 3.33 µM
CC50 [9]: 6.42 µM
GI50 [10]: 1540 nM
IC (TGI) [10]: 3.24 µM
CC50 [10]: 6.82 µM
GI50 [11]: 1290 nM
activity at 10 µM [11]: -79%
IC (TGI) [11]: 2.63 µM
CC50 [11]: 5.38 µM
GI50 [12]: 1740 nM
IC (TGI) [12]: 3.54 µM
CC50 [12]: 7.19 µM
GI50 [13]: 1.58 µM
IC (TGI) [13]: 3.01 µM
CC50 [13]: 5.72 µM
GI50 [14]: 1.54 µM
IC (TGI) [14]: 2.91 µM
CC50 [14]: 5.5 µM
GI50 [15]: 1580 nM
IC (TGI) [15]: 3.13 µM
CC50 [15]: 6.19 µM
GI50 [16]: 1820 nM
IC (TGI) [16]: 3.25 µM
CC50 [16]: 5.8 µM
GI50 [17]: 1.51 µM
IC (TGI) [17]: 2.89 µM
CC50 [17]: 5.52 µM
GI50 [18]: 1830 nM
IC (TGI) [18]: 3.51 µM
CC50 [18]: 6.73 µM
GI50 [19]: 1.83 µM
IC (TGI) [19]: 3.49 µM
CC50 [19]: 6.64 µM
GI50 [20]: 1620 nM
IC (TGI) [20]: 3.16 µM
CC50 [20]: 6.19 µM
GI50 [21]: 1550 nM
IC (TGI) [21]: 2.89 µM
CC50 [21]: 5.4 µM
GI50 [22]: 1680 nM
IC (TGI) [22]: 3.18 µM
CC50 [22]: 6.04 µM
GI50 [23]: 2940 nM
IC (TGI) [23]: 2.94 µM
CC50 [23]: 5.74 µM

CC1(C)CC[C@]2(CO)CC[C@]3(C)C(=CC[C@@H]4[C@@]5(C)CCCNC(C)(C)[C@@H]5CC[C@]43C)[C@@H]2C1 [Compound 3, azepanoerythrodiol]
EC50 [1]: n.s.
TGI [2]: > 100 µM
GI50 ([2]; Homo sapiens): 2220 nM
CC50 ([2]; Homo sapiens, read-out: LC50 (the source's name)): > 100 µM
GI50 ([3]; Homo sapiens, MDA-MB-435): 1710 nM
IC (TGI) ([3]; Homo sapiens, MDA-MB-435, 48 h, read-out: TGI): 3.36 µM
CC50 ([3]; Homo sapiens, MDA-MB-435; read-out: LC50 (the source's name)): 6.59 µM
GI50 [4]: 1790 nM
IC (TGI) [4]: 3.74 µM
CC50 [4]: 7.81 µM
IC (TGI) [5]: 17.8 µM
GI50 [5]: 2870 nM
CC50 [5]: 44.1 µM
IC (TGI) [6]: 19.1 µM
GI50 [6]: 7.75 µM
CC50 [6]: 45.6 µM
GI50 [7]: 2500 nM
CC50 [7]: > 100 µM
GI50 [8]: 5.89 µM
IC (TGI) [8]: 20.4 µM
CC50 [8]: 58.9 µM
GI50 [9]: 1360 nM
IC (TGI) [9]: 30.7 µM
CC50 [9]: 6.92 µM
Growth % of the Most Sensitive Cell Lines ([10]; COLO 205, 1 dose 10 µM): −88.44%
GI50 [10]: 1830 nM
IC (TGI) [10]: 3.25 µM
CC50 [10]: 5.77 µM
GI50 [11]: 1640 nM
activity at 10 µM [11]: -85.8%
IC (TGI) [11]: 3.11 µM
CC50 [11]: 5.92 µM
GI50 [12]: 2900 nM
IC (TGI) [12]: 9.77 µM
CC50 [12]: 65.6 µM
GI50 [13]: 11 µM
IC (TGI) [13]: 2.41 µM
CC50 [13]: 52.7 µM
GI50 [14]: 9.84 µM
IC (TGI) [14]: 2.17 µM
CC50 [14]: 47.1 µM
GI50 [15]: 2040 nM
IC (TGI) [15]: 3.87 µM
CC50 [15]: 7.34 µM
Growth % of the Most Sensitive Cell Lines ([15]; M14, 1 dose 10 µM): −82.21%
GI50 [16]: 1920 nM
IC (TGI) [16]: 3.93 µM
CC50 [16]: 8.07 µM
GI50 [17]: 11.9 µM
IC (TGI) [17]: 24.6 µM
CC50 [17]: 51 µM
GI50 [18]: 3830 nM
IC (TGI) [18]: 15.6 µM
CC50 [18]: 54.1 µM
GI50 [19]: 14.1 µM
IC (TGI) [19]: 28.9 µM
CC50 [19]: 59.2 µM
GI50 [20]: 2250 nM
IC (TGI) [20]: 4.84 µM
CC50 [20]: 12.7 µM
GI50 [21]: 3050 nM
IC (TGI) [21]: 13.7 µM
CC50 [21]: 53.6 µM
GI50 [22]: 2880 nM
IC (TGI) [22]: 11.7 µM
CC50 [22]: 48.6 µM
GI50 [23]: 1480 nM
IC (TGI) [23]: 3.33 µM
CC50 [23]: 7.47 µM
